# Activity calls are given as the source filed them. No cut-off for these calls is given here.
# Experiments:
# [1] = target: 5-hydroxytryptamine receptor 2B (Homo sapiens, UniProt P41595); assay: Displacement of [3H]5-HT from human cloned 5HT2B receptor expressed in HEK293 cells; format: cell-based
# [2] = target: Sodium-dependent serotonin transporter (Rattus norvegicus, UniProt P31652); assay: Inhibition of [3H]5-HT uptake at SERT in rat cortical synaptosomes; format: subcellular, Brain
# [3] = target: 5-hydroxytryptamine receptor 7 (Homo sapiens, UniProt P34969); assay: Displacement of [3H]5CT from human cloned 5HT7a receptor expressed in HEK293 cells; format: cell-based
# 5-hydroxytryptamine receptor 7, sequence (P34969 whole entry): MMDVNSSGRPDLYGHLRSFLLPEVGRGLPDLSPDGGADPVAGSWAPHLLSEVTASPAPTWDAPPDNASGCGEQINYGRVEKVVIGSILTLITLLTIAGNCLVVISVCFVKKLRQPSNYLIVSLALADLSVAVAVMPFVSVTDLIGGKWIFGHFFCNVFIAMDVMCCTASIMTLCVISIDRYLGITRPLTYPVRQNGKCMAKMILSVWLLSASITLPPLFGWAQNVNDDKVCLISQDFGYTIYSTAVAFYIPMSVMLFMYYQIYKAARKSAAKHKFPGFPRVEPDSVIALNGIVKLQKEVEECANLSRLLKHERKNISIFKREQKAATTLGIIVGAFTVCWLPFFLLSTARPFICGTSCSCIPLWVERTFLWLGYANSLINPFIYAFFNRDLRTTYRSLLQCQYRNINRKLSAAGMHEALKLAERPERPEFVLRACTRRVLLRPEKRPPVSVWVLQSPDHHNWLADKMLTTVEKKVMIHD
# [4] = Selectivity for rat SERT over human 5HT1D
# [5] = target: 5-hydroxytryptamine receptor 6 (Homo sapiens, UniProt P50406); assay: Displacement of [3H]LSD from human cloned 5HT6 receptor expressed in HeLa cells; format: cell-based
# 5-hydroxytryptamine receptor 6, sequence (P50406 whole entry): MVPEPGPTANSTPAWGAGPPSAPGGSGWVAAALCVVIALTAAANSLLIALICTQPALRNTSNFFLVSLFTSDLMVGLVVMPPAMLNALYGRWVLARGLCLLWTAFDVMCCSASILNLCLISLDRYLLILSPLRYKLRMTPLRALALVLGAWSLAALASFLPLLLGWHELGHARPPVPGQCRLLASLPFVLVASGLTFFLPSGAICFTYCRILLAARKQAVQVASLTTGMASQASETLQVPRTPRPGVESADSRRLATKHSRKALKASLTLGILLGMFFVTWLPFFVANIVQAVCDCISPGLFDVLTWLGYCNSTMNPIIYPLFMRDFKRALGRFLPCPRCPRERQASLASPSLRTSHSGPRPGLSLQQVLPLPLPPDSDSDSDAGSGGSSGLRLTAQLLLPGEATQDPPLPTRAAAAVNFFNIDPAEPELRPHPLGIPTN
# [6] = target: 5-hydroxytryptamine receptor 1B (Homo sapiens, UniProt P28222); assay: Displacement of [3H]5-HT from human cloned 5HT1B receptor expressed in CHO cells; format: cell-based
# 5-hydroxytryptamine receptor 1B, sequence (P28222 whole entry): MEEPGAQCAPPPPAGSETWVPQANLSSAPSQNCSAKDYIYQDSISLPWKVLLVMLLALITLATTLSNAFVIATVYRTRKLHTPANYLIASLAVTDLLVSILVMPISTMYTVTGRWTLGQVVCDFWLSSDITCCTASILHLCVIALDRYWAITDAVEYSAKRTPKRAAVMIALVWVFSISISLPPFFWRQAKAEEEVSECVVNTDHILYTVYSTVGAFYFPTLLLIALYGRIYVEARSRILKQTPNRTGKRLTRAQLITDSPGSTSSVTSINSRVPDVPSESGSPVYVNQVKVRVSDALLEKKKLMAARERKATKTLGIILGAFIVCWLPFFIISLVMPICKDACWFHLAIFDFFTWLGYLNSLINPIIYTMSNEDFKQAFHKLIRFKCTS
# Rattus norvegicus [7] = assay: Ex vivo displacement of [3H]WAY-100635 from 5HT1A receptor in rat cortex at 1 mg/kg, po; format: functional
# Rattus norvegicus [8] = assay: Attenuation of 8-OH DPAT induced locomotor activity in po dosed rat; format: functional
# Rattus norvegicus [9] = assay: Effect on locomotor activity in rat up to 10 mg/kg
# D(2) dopamine receptor = D(2) dopamine receptor (Homo sapiens, UniProt P14416); assay: Displacement of [125I]iodosulpiride from human cloned D2 receptor expressed in CHO cells; format: cell-based
# D(2) dopamine receptor, sequence (P14416 whole entry): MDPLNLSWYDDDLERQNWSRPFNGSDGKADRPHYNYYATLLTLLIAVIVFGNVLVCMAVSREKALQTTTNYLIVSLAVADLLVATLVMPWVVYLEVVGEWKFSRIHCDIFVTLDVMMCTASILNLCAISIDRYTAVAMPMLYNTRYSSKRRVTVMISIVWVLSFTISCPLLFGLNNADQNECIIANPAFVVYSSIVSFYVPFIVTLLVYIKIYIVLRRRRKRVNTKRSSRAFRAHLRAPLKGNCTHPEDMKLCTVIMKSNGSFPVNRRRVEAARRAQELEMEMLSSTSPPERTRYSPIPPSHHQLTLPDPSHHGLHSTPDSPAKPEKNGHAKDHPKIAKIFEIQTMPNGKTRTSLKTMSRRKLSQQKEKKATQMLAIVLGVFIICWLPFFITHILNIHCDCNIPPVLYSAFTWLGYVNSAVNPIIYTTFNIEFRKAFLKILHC
# Rattus norvegicus [10] = species on record: Rattus norvegicus; assay: Ex vivo displacement of [3H]WAY-100635 from 5HT1A receptor in rat cortex; format: functional, organism-based
# [11] = target: Alpha-1B adrenergic receptor (Homo sapiens) (UniProt P35368); assay: Binding affinity at adrenergic alpha 1b receptor
# Alpha-1B adrenergic receptor (Homo sapiens), sequence (P35368 whole entry, looked up): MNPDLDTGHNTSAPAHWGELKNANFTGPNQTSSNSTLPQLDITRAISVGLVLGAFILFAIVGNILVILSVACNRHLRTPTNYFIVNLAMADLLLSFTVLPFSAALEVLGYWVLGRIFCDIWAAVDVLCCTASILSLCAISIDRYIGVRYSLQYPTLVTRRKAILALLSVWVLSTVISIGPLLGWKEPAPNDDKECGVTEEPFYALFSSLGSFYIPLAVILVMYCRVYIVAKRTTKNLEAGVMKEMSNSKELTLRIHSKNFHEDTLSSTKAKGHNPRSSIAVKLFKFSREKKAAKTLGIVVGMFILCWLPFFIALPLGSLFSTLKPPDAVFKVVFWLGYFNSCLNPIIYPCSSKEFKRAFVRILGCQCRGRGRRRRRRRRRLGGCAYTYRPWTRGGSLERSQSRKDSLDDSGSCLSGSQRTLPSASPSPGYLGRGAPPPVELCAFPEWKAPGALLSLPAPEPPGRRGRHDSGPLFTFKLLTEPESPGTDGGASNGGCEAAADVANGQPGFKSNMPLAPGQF
# Rattus norvegicus [12] = species on record: Rattus norvegicus; assay: Ex vivo inhibition of [3H]5-HT uptake at SERT in rat cortical synaptosomes; format: functional; conditions: Brain
# [13] = Blood clearance in rat at 3 mg/kg, po; format: ADME, organism-based; set-up: dose 3 mg/kg, route oral; conditions: whole blood
# [14] = target: T1, 5-hydroxytryptamine receptor 1A (Homo sapiens) (UniProt P08908); assay: Intrinsic activity at 5HT1A receptor expressed in HEK293 cells relative to 5HT by [35S]GTPgammaS binding assay; format: functional, cell-based
# T1 sequence (whole entry): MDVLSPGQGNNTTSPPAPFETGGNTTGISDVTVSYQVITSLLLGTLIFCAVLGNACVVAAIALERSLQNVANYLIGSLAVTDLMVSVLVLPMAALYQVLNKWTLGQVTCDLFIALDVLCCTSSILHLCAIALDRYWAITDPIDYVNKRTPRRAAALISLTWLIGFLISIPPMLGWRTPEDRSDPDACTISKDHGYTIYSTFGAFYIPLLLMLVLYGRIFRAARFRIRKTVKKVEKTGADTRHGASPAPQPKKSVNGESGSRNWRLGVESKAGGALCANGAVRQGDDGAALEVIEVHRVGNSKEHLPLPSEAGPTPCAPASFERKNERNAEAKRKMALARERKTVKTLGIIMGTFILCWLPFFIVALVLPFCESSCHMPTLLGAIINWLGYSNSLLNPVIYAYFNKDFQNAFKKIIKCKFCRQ
# [15] = target: T2, 5-hydroxytryptamine receptor 1A (Homo sapiens, UniProt P08908); assay: Displacement of [3H]WAY-100635 from human cloned 5HT1A receptor expressed in CHO cells; format: cell-based
# T2 sequence (P08908 whole entry): T1 sequence (whole entry)
# [16] = Selectivity for rat SERT over human 5HT1B
# [17] = target: T3, 5-hydroxytryptamine receptor 1A (Rattus norvegicus, UniProt P19327); assay: Agonist activity at rat 5HT1A receptor; format: functional
# T3 sequence (P19327 whole entry): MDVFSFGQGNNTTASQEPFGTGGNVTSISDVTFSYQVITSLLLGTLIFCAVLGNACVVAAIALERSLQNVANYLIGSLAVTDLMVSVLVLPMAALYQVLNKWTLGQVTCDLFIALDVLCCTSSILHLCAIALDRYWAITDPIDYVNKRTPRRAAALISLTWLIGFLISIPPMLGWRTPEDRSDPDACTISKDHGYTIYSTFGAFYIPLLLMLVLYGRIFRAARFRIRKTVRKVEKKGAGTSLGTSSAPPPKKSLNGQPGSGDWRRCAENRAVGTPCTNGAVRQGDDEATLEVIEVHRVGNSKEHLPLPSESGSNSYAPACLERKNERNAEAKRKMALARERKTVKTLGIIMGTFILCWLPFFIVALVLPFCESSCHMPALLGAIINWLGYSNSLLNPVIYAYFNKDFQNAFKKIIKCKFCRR
# [18] = Agonist activity at marmoset 5HT1A receptor; format: functional, Callithrix jacchus
# Rattus norvegicus [19] = assay: Ex vivo displacement of [3H]8-OH DPAT from 5HT1A receptor in rat cortex at 1 mg/kg, po; format: functional
# [20] = Agonist activity at guinea pig 5HT1A receptor; format: functional, Cavia porcellus
# [21] = target: 5-hydroxytryptamine receptor 2A (Homo sapiens, UniProt P28223); assay: Displacement of [3H]ketanserin from human cloned 5HT2A receptor expressed in HEK293 cells; format: cell-based
# 5-hydroxytryptamine receptor 2A, sequence (P28223 whole entry): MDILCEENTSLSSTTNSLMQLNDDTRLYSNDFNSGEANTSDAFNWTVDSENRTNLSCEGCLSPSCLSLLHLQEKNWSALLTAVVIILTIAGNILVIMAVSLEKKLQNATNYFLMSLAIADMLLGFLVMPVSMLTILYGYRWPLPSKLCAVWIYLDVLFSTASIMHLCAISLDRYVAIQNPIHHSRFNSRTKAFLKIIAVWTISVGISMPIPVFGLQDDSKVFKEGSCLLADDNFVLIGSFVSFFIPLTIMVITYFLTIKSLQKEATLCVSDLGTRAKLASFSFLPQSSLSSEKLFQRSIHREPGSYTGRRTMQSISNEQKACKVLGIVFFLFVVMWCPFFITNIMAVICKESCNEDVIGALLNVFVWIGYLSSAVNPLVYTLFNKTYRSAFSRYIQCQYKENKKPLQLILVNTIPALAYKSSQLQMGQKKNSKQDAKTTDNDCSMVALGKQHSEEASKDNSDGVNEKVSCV
# Homo sapiens [22] = species on record: Homo sapiens; assay: Selectivity for human 5TH1A over human 5HT1B
# [23] = target: T4, 5-hydroxytryptamine receptor 2C (Homo sapiens, UniProt P28335); assay: Displacement of [3H]mesulergine from human cloned 5HT2C receptor expressed in HEK293 cells; format: cell-based
# T4 sequence (P28335 whole entry): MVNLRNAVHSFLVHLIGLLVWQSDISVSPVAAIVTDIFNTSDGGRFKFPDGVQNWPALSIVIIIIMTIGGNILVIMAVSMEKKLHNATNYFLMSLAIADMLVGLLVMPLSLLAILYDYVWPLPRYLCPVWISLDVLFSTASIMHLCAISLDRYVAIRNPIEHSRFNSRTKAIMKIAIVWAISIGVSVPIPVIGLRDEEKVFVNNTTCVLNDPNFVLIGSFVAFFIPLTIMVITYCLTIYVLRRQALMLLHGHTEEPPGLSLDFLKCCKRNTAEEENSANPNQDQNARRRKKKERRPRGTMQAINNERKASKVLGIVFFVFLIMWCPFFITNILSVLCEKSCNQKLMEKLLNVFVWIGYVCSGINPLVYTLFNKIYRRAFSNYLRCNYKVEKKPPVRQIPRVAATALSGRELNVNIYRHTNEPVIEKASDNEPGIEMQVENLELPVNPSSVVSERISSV
# Homo sapiens [24] = species on record: Homo sapiens; assay: Selectivity for human 5TH1A over human 5HT1D
# D(3) dopamine receptor = D(3) dopamine receptor (Homo sapiens, UniProt P35462); assay: Displacement of [125I]iodosulpiride from human cloned D3 receptor expressed in CHO cells; format: cell-based
# D(3) dopamine receptor, sequence (P35462 whole entry): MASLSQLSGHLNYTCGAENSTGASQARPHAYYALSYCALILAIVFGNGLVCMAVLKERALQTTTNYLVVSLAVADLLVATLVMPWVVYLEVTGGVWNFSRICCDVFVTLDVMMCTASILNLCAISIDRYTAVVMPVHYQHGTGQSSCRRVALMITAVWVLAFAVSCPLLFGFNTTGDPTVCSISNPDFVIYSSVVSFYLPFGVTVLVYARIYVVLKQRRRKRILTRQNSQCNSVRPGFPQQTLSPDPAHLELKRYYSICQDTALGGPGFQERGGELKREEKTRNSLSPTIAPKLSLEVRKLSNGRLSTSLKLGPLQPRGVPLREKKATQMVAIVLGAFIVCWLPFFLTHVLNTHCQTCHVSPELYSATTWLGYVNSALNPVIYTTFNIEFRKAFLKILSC
# [25] = target: 5-hydroxytryptamine receptor 1D (Homo sapiens, UniProt P28221); assay: Displacement of [3H]5-HT from human cloned 5HT1D receptor expressed in CHO cells; format: cell-based
# 5-hydroxytryptamine receptor 1D, sequence (P28221 whole entry): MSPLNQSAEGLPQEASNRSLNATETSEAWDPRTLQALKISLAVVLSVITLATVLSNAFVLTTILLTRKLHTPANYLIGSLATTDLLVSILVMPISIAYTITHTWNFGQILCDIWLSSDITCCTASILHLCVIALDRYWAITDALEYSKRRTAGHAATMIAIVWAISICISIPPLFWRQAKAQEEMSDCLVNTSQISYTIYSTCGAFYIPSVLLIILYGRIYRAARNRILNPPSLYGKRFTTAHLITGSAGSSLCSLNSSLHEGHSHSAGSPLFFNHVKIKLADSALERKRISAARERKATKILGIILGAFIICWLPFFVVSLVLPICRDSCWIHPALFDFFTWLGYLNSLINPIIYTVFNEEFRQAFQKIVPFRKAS
# [26] = Oral bioavailability in rat at 3 mg/kg, po; format: ADME, organism-based; conditions: in vivo
# Rattus norvegicus [27] = species on record: Rattus norvegicus; assay: Ex vivo displacement of [3H]8-OH DPAT from 5HT1A receptor in rat cortex; format: functional, organism-based
# [28] = Ratio of drug level in brain to blood in rat
# Sodium-dependent serotonin transporter, sequence (P31652 whole entry): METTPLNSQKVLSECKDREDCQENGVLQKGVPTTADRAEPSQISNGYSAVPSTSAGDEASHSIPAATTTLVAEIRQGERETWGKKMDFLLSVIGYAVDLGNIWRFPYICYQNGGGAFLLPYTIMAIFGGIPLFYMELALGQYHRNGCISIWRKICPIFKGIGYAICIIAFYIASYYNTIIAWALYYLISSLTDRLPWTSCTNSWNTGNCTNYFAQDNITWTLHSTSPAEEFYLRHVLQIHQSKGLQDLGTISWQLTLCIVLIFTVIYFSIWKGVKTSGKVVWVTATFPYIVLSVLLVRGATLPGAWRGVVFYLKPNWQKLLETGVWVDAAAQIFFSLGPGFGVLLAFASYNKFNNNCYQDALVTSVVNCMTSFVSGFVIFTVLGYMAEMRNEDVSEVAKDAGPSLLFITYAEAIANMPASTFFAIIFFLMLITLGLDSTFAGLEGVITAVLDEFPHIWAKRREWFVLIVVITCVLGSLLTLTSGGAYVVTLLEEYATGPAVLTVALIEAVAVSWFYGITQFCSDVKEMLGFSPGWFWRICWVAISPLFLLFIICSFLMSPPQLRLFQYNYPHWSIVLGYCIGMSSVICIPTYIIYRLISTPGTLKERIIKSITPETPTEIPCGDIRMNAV
# 5-hydroxytryptamine receptor 2B, sequence (P41595 whole entry): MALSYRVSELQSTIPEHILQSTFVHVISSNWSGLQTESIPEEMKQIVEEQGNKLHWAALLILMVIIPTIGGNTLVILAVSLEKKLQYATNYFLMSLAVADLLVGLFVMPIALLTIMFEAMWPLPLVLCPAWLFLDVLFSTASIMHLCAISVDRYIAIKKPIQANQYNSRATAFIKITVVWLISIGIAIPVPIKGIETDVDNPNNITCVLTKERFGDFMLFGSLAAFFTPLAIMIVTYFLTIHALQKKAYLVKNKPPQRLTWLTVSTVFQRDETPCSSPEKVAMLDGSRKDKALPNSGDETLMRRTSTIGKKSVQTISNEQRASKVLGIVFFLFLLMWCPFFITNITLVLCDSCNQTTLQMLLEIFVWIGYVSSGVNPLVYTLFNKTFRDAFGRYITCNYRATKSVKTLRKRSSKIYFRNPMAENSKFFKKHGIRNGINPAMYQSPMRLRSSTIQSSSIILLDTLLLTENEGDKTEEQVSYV
SMILES,Ki [2] [µM],Ki [3] [µM],Selectivity ratio [4],Ki [5] [µM],Ki [6] [µM],inhibition in vivo at 1 mg/kg (Rattus norvegicus [7]) [%],ED50 (Rattus norvegicus [8]) [mg/kg],Ki (D(2) dopamine receptor) [µM],Activity (Rattus norvegicus [10]),Ki [11] [µM],ED50 (Rattus norvegicus [12]) [mg/kg],CL/F [13] [mL/min/kg],Intrinsic activity [14],Ki [15] [µM],Selectivity ratio [16],Ki [17] [µM],Log Ki [18],inhibition in vivo at 1 mg/kg (Rattus norvegicus [19]) [%],Log Ki [20],Ki [21] [µM],further results
Cc1ccc2c(OCCN3CCC(Cc4cc5c(cc4F)OCC(=O)N5)CC3)cc(Cl)cc2n1,0.0158,0.0398,100,7.94,2,50,3,3.16,Dose-dependent effect,2.51,3,18,0,0.00251,100,> 0.001,> -9,50,> -9,> 10,Log Ki ([1]; hek293): > -6; Activity (Rattus norvegicus [9]): inactive; Selectivity ratio (Homo sapiens [22]): 100; Ki [23]: > 5.01 µM; Selectivity ratio (Homo sapiens [24]): 100; Ki (D(3) dopamine receptor): 2 µM; Ki [25]: 0.794 µM; bioavailability [26]: 60%; Activity (Rattus norvegicus [27]): Dose-dependent effect
Cc1ccc2c(OCCN3CCC(Cc4cc5c(cc4F)OCC(=O)N5)CC3)cc(F)cc2n1,0.00794,0.0398,100,> 1,1,50,< 1,2,Dose-dependent effect,0.794,3,19,0,0.000398,100,> 0.001,> -9,50,> -9,2,Ki [1]: 1 µM; Kp [28]: 1.2; Selectivity ratio (Homo sapiens [22]): 100; Ki [23]: 1.26 µM; Selectivity ratio (Homo sapiens [24]): 100; Ki (D(3) dopamine receptor): 0.501 µM; Ki [25]: 0.251 µM; bioavailability [26]: 54%; Activity (Rattus norvegicus [27]): Dose-dependent effect

# Source: ChEMBL document CHEMBL1139046, “3,4-Dihydro-2H-benzoxazinones as dual-acting 5-HT1A receptor antagonists and serotonin reuptake inhibitors” (Bioorg Med Chem Lett, 2007)
